Laboratory results as given in patent US7888357B2, “Anti-inflammatory and protein kinase inhibitor compositions and related methods for downregulation of detrimental cellular responses and inhibition of cell death” (Northwestern University, priority 2001, dated 2011).

Tests used:
BV-2 microglial cells = test: Cell-based screen for inhibition of LPS-stimulated NO release (Griess assay); set-up: species or system murine; settings: LPS-stimulated BV-2 cells, 24 hr, nitrite in conditioned media
Method: FIG. 1. Cell-based screen for inhibition of LPS-stimulated NO release. […] Inhibition is expressed as percent control, where the control is the NO accumulation from cells stimulated with LPS alone.
The rationale for using BV-2 cells in high throughput screening was the paucity of well-characterized human microglial cell lines, and the relevant activation responses and signaling pathways reflect those seen in human and rodent primary microglial cultures. Compounds were tested for their effects on NO accumulation in conditioned media of LPS-stimulated BV-2 cells by measurement of nitrite production by the Griess assay as a read-out for iNOS activity, as described previously. Stock solutions of compounds were prepared in dimethylsulfoxide (DMSO) or in water. When stock solutions were prepared in DMSO, control wells contained the same final concentration of DMSO as the compound-containing wells. […] Solutions of compounds for cell treatments were diluted to a 10× final concentration by dilution of stock solutions in αMEM media. The commercially available drugs tested were: compound 5 (KN93 from Alexis); compound 6 (pyrrolidinedithiocarbamate or PDTC from Sigma), compound 7 (SB203580 from Alexis Corporation), compound 8 (PD98059 from Alexis Corporation), and compound 9 (UO126 from Cell Signaling). […] Respectively, Western blots of cell lysates were done with the following antibodies: monoclonal anti-iNOS (1:1000 dilution, Transduction Labs); polyclonal anti-rat IL-1β (1:1000 dilution, R&D Systems, Inc.); monoclonal anti-glial fibrillary acidic protein (GFAP) (1:[…] dilution, Sigma); polyclonal anti-rat alioE (1:15,000 dilution) prepared as described; polyclonal anti-COX-2 (1:500 dilution) and monoclonal anti-phosphoATF2 (1:1000 dilution) from Santa Cruz Biotechnology, polyclonal anti-phosphoCREB (1:1000 dilution), and polyclonal anti-phosphop38 MAPK (1:1000 dilution). Reconstituted enzyme assays were done as described s. The sources of protein kinases were: bovine heart PKA from Promega, rat brain PKC from Calbiochem, rat CaMKII from New England Biolabs, chicken gizzard MLCK prepared as described, and a p38 MAP kinase kit containing recombinant Xenopus p38-MAPK and its human substrate from Upstate Biotechnology. The catalytic domains of these protein kinases retain a high level of amino acid sequence identity across mammalian species, consistent with the lack of documented major differences across species for the in vitro catalytic activity of a given kinase.
FIG. 4. Cell-based screen for functional effects of synthetic compounds on LPS-stimulated NO release from BV-2 cells. BV-2 cells were incubated for 24 hr with LPS (500 ng/ml) in the presence of increasing concentrations of: A) MW01-070C; B) MW01-026Z; C) MW01-118Z; D) MW01-119Z; E) MW01-051Z; F) MW01-160Z; G) MW01-196A; H) MW01-024Z; I) SB203580; J) PDTC; K) U0126; L) PD98059. The nitrite levels in conditioned media were determined. Inhibition is expressed as percentage of control values, where the control is the nitrite level in cells stimulated with LPS alone.
Compounds were tested for their effects on NO production by LPS-stimulated BV-2 cells as previously described [Mirzoeva, S., Koppal, T., Petrova, T. V., Lukas, T. J., Watterson, D. M., and Van Eldik, L. J. (1999) Brain Res. 844, 126-134]. The levels of nitrite, a stable NO metabolite, in conditioned media were determined by the Griess assay as previously described [Hu, J., Castets, F., Guevara, J. L., and Van Eldik, L. J. (1996) J. Biol. Chem. 271, 2543-2547]. Stock solutions of compounds were prepared in DMSO or in water. When stock solutions were prepared in DMSO, control wells contained the same final concentration of DMSO as the compound-containing wells. Solutions of compounds for cell treatments were diluted to a 10× final concentration by dilution of stock solutions of drugs in αMEM media.

protein kinase A (PKA) = biological target: T1, protein kinase A (PKA) (Bos taurus, UniProt P00517); test: Reconstituted enzyme assay, PKA; format: biochemical, bovine; settings: γ-[32P]-ATP, synthetic peptide substrate
T1 construct: bovine heart PKA from Promega; purchased Promega; host or cells: bovine heart
Method: [table] […] The rationale for using BV-2 cells in high throughput screening was the paucity of well-characterized human microglial cell lines, and the relevant activation responses and signaling pathways reflect those seen in human and rodent primary microglial cultures. Compounds were tested for their effects on NO accumulation in conditioned media of LPS-stimulated BV-2 cells by measurement of nitrite production by the Griess assay as a read-out for iNOS activity, as described previously. Stock solutions of compounds were prepared in dimethylsulfoxide (DMSO) or in water. When stock solutions were prepared in DMSO, control wells contained the same final concentration of DMSO as the compound-containing wells. […] Solutions of compounds for cell treatments were diluted to a 10× final concentration by dilution of stock solutions in αMEM media. […] Reconstituted enzyme assays were done as described s. The sources of protein kinases were: bovine heart PKA from Promega, rat brain PKC from Calbiochem, rat CaMKII from New England Biolabs, chicken gizzard MLCK prepared as described, and a p38 MAP kinase kit containing recombinant Xenopus p38-MAPK and its human substrate from Upstate Biotechnology. […]

N=c1cc2c(nn1CCCCCCCCCCC(=O)N1CCN(c3ncccn3)CC1)-c1ccccc1CC2 [MW01-070C]
inhibition of NO accumulation by activated glia (BV-2 microglial cells): more effective
inhibition of NO accumulation by activated glia (BV-2 microglial cells; listed as 1): most active compound
IC50 (protein kinase A (PKA)): > 100 µM
